The values that follow come from ChEMBL document CHEMBL1129105, “Synthesis and biological evaluation of N-(1-aziridino)-6-fluoro-quinolone-3-carboxylic acids” (1996).

Values after ≈ are worked out from the molar mass of the structure shown.

For one assay, the system named is Bacillus subtilis. As to the kind of experiment: In vitro antibacterial activity of compound was measured against gram positive Bacillus subtilis ATCC 6633. The assay is classed as functional.
The next assay deals with Salmonella typhimurium. As to the kind of experiment: In vitro antibacterial activity of compound was measured against gram negative Salmonella Typhimurium 51. The following applies: Salmonella enterica. It counts as functional, Salmonella enterica subsp. enterica serovar Typhimurium.
Another assay deals with Serratia marcescens. As to the kind of experiment: In vitro antibacterial activity of compound was measured against gram negative Serratia marcescens. The assay is classed as functional.
Assay [1] deals with Staphylococcus aureus. As to the kind of experiment: In vitro antibacterial activity of compound was measured against gram positive Staphylococcus aureus SMITH. It counts as functional.
The subject of another assay is Proteus vulgaris. In words: In vitro antibacterial activity of compound was measured against gram negative Proteus vulgaris XL. It counts as functional.
The next assay concerns Streptococcus pneumoniae. In words: In vitro antibacterial activity of compound was measured against gram positive Streptococcus pneumoniae. The assay is classed as functional.
For assay [2], the system named is Escherichia coli. As to the kind of experiment: In vitro antibacterial activity of compound was measured against gram negative Escherichia coli 6R. The assay is classed as functional.
In assay [3] the test system is Bordetella bronchiseptica. In words: In vitro antibacterial activity of compound was measured against gram negative Bordetella bronchiseptica ATCC 4617. The assay is classed as functional.
The test system of the next assay is Pseudomonas aeruginosa. In words: In vitro antibacterial activity of compound was measured against gram negative Pseudomonas pyocyanea NCTC 10490. The assay is classed as functional, pseudomona pyocyanea.
The subject of the next assay is Clostridium perfringens. In words: In vitro antibacterial activity of compound was measured against gram positive Clostridium perfringens 70500. It counts as functional.
The subject of assay [4] is Streptococcus pyogenes. In words: In vitro antibacterial activity of compound was measured against gram positive Streptococcus pyogenes A 115 ROBB. It counts as functional.
For the next assay, the system named is Klebsiella pneumoniae. As to the kind of experiment: In vitro antibacterial activity of compound was measured against gram negative Klebsiella pneumoniae ATCC 10031. The assay is classed as functional.
Assay [5] deals with Acinetobacter calcoaceticus subsp. anitratus. In words: In vitro antibacterial activity of compound was measured against gram negative Acinetobacter anitratus 150001. The assay is classed as functional.
Assay [6] concerns Staphylococcus aureus. As to the kind of experiment: In vitro antibacterial activity of compound was measured against gram positive Staphylococcus aureus 1110 pen.rez. It counts as functional.
Assay [7] deals with Mycobacterium tuberculosis. As to the kind of experiment: In vitro antibacterial activity of compound was measured against gram positive Mycobacterium tuberculosis Ravenel(bovin). It counts as functional.
The subject of assay [8] is Mycobacterium tuberculosis. As to the kind of experiment: In vitro antibacterial activity of compound was measured against gram positive Mycobacterium tuberculosis H37Rv (human). The assay is classed as functional.
For a further assay, the system named is Shigella sonnei. In words: In vitro antibacterial activity of compound was measured against gram negative Shigella sonnei. The assay is classed as functional.
Assay [9] relates to Streptococcus pyogenes. In words: In vitro antibacterial activity of compound was measured against gram positive Streptococcus pyogenes A 118. It counts as functional.
The subject of the next assay is Proteus inconstans. In words: In vitro antibacterial activity of compound was measured against gram negative Proteus inconstans NCTC 8055. It counts as functional. The following applies: Providencia alcalifaciens.
The subject of the next assay is Enterococcus faecalis. As to the kind of experiment: In vitro antibacterial activity of compound was measured against gram positive Streptococcus faecalis. It counts as functional.
The test system of the next assay is Alcaligenes faecalis. As to the kind of experiment: In vitro antibacterial activity of compound was measured against gram negative Alcaligenes faecalis 140001. The assay is classed as functional.
Assay [10] concerns Escherichia coli. As to the kind of experiment: In vitro antibacterial activity of compound was measured against gram negative Escherichia coli K12. The assay is classed as functional.
Another assay relates to Bacteroides fragilis. In words: In vitro antibacterial activity of compound was measured against gram negative Bacteroides fragilis ATCC 25285. It counts as functional.

Take `CN1CCN(c2cc3c(cc2F)c(=O)c(C(=O)O)cn3N2CC2c2ccccc2)CC1` (configuration not stated): the MIC with Bacillus subtilis worked out at 6.2 µg/mL (≈ 14.7 µM); in the assay on Salmonella typhimurium, 50 µg/mL (≈ 118 µM); against Serratia marcescens, 100 µg/mL (≈ 237 µM); against Staphylococcus aureus [1], 12.5 µg/mL (≈ 29.6 µM); against Proteus vulgaris, 50 µg/mL (≈ 118 µM); against Streptococcus pneumoniae, 5 µg/mL (≈ 11.8 µM). Moreover, the minimum inhibitory concentration (MIC) against Escherichia coli [2] was determined as 100 µg/mL (≈ 237 µM); in assay [3], 6.2 µg/mL (≈ 14.7 µM); with Pseudomonas aeruginosa, 100 µg/mL (≈ 237 µM); against Clostridium perfringens it was 6.2 µg/mL (≈ 14.7 µM); in the assay with Streptococcus pyogenes [4], 10 µg/mL (≈ 23.7 µM); against Klebsiella pneumoniae it was 3.1 µg/mL (≈ 7.34 µM). For the same compound, the minimum inhibitory concentration (MIC) was 50 µg/mL (≈ 118 µM) in assay [5]; 25 µg/mL (≈ 59.2 µM) with Staphylococcus aureus [6]; 3.1 µg/mL (≈ 7.34 µM) in assay [7]; 6.2 µg/mL (≈ 14.7 µM) in assay [8]; 6.2 µg/mL (≈ 14.7 µM) against Shigella sonnei; 10 µg/mL (≈ 23.7 µM) in the assay with Streptococcus pyogenes [9]. The minimum inhibitory concentration (MIC) in the assay with Proteus inconstans was found to be 100 µg/mL (≈ 237 µM); against Enterococcus faecalis, 25 µg/mL (≈ 59.2 µM); in the assay with Alcaligenes faecalis, 100 µg/mL (≈ 237 µM); in the assay on Escherichia coli [10], 50 µg/mL (≈ 118 µM); in the assay on Bacteroides fragilis it was 6.2 µg/mL (≈ 14.7 µM).

For the compound `CN1CCN(c2cc3c(cc2F)c(=O)c(C(=O)O)cn3N2CC2c2ccc(F)cc2)CC1` (configuration not stated), the MIC in the assay with Bacillus subtilis came to 10 µg/mL (≈ 22.7 µM); with Salmonella typhimurium it was 50 µg/mL (≈ 114 µM); in the assay with Serratia marcescens it was 100 µg/mL (≈ 227 µM); against Staphylococcus aureus [1], 25 µg/mL (≈ 56.8 µM); against Proteus vulgaris it was 100 µg/mL (≈ 227 µM); against Streptococcus pneumoniae, 5 µg/mL (≈ 11.4 µM). Besides, the MIC against Escherichia coli [2] is 100 µg/mL (≈ 227 µM); in assay [3], 12.5 µg/mL (≈ 28.4 µM); in the assay with Pseudomonas aeruginosa it was 100 µg/mL (≈ 227 µM); with Clostridium perfringens, 6.2 µg/mL (≈ 14.1 µM); against Streptococcus pyogenes [4], 10 µg/mL (≈ 22.7 µM); against Klebsiella pneumoniae, 6.2 µg/mL (≈ 14.1 µM). Besides, the MIC in [5] is 50 µg/mL (≈ 114 µM); with Staphylococcus aureus [6], 25 µg/mL (≈ 56.8 µM); in [7], 6.2 µg/mL (≈ 14.1 µM); in [8], 12.5 µg/mL (≈ 28.4 µM); in the assay with Shigella sonnei, 25 µg/mL (≈ 56.8 µM); against Streptococcus pyogenes [9], 25 µg/mL (≈ 56.8 µM). Moreover, the minimum inhibitory concentration (MIC) in the assay on Proteus inconstans is 100 µg/mL (≈ 227 µM); in the assay on Enterococcus faecalis it was 25 µg/mL (≈ 56.8 µM); against Alcaligenes faecalis it was 100 µg/mL (≈ 227 µM); with Escherichia coli [10], 50 µg/mL (≈ 114 µM); in the assay with Bacteroides fragilis it was 25 µg/mL (≈ 56.8 µM).

With `CN1CCN(c2c(F)cc3c(=O)c(C(=O)O)cn(N4CC4c4cccc(C(F)(F)F)c4)c3c2F)CC1` (configuration not stated), the minimum inhibitory concentration (MIC) with Bacillus subtilis was 50 µg/mL (≈ 98.3 µM); against Salmonella typhimurium, 50 µg/mL (≈ 98.3 µM); against Serratia marcescens, 100 µg/mL (≈ 197 µM); in the assay with Staphylococcus aureus [1], 25 µg/mL (≈ 49.2 µM); against Proteus vulgaris, 100 µg/mL (≈ 197 µM); in the assay with Streptococcus pneumoniae, 25 µg/mL (≈ 49.2 µM). Besides, the MIC against Escherichia coli [2] was 100 µg/mL (≈ 197 µM); in [3], 100 µg/mL (≈ 197 µM); against Pseudomonas aeruginosa, 100 µg/mL (≈ 197 µM); against Clostridium perfringens it was 100 µg/mL (≈ 197 µM); in the assay with Streptococcus pyogenes [4], 100 µg/mL (≈ 197 µM); with Klebsiella pneumoniae, 12.5 µg/mL (≈ 24.6 µM). Besides, the MIC in [5] was 100 µg/mL (≈ 197 µM); in the assay with Staphylococcus aureus [6], 50 µg/mL (≈ 98.3 µM); in assay [7], 50 µg/mL (≈ 98.3 µM); in assay [8], 100 µg/mL (≈ 197 µM); with Shigella sonnei, 12.5 µg/mL (≈ 24.6 µM); against Streptococcus pyogenes [9] it was 100 µg/mL (≈ 197 µM). Also, the minimal inhibitory concentration (MIC) in the assay with Proteus inconstans came to 100 µg/mL (≈ 197 µM); against Enterococcus faecalis, 50 µg/mL (≈ 98.3 µM); in the assay with Alcaligenes faecalis it was 100 µg/mL (≈ 197 µM); with Escherichia coli [10], 50 µg/mL (≈ 98.3 µM); in the assay on Bacteroides fragilis it was 50 µg/mL (≈ 98.3 µM).

On to `CN1CCN(c2c(F)cc3c(=O)c(C(=O)O)cn(N4CC4c4ccc(F)cc4)c3c2F)CC1` (configuration not stated), for which the MIC is more than 100 µg/mL against Bacillus subtilis; 25 µg/mL (≈ 54.5 µM) in the assay with Salmonella typhimurium; 25 µg/mL (≈ 54.5 µM) against Serratia marcescens; more than 100 µg/mL against Staphylococcus aureus [1]; 25 µg/mL (≈ 54.5 µM) in the assay with Proteus vulgaris; 50 µg/mL (≈ 109 µM) in the assay on Streptococcus pneumoniae. The MIC against Escherichia coli [2] was more than 100 µg/mL; in assay [3], more than 100 µg/mL; in the assay on Pseudomonas aeruginosa, more than 100 µg/mL; in the assay on Clostridium perfringens, 100 µg/mL (≈ 218 µM); against Streptococcus pyogenes [4], 100 µg/mL (≈ 218 µM); in the assay with Klebsiella pneumoniae it was 12.5 µg/mL (≈ 27.3 µM). Further, the MIC in [5] was more than 100 µg/mL; in the assay on Staphylococcus aureus [6] it was more than 100 µg/mL; in assay [7] it was 50 µg/mL (≈ 109 µM); in [8], 100 µg/mL (≈ 218 µM); with Shigella sonnei, 12.5 µg/mL (≈ 27.3 µM); against Streptococcus pyogenes [9], more than 100 µg/mL. Besides, the MIC is 25 µg/mL (≈ 54.5 µM) with Proteus inconstans; more than 100 µg/mL in the assay with Enterococcus faecalis; more than 100 µg/mL against Alcaligenes faecalis; 12.5 µg/mL (≈ 27.3 µM) against Escherichia coli [10]; more than 100 µg/mL with Bacteroides fragilis.
